Experimental data as given in patent publication US20240365784A1, “AZOLE COMPOUNDS FOR CONTROLLING INVERTEBRATE PESTS” (FMC Corporation, priority 2021, published 2024).

What was measured:
Experiment in all cases: whole plant or invertebrate
Assay type in all cases: in vivo
[1] = tested on: sweetpotato whitefly (Bemisia tabaci (Gennadius)); conditions: 312 h, cotton plant infested with eggs, assessed after 13 days; for mortality at 50 ppm: sprayed at 50 ppm; for mortality at 10 ppm: tested at 10 ppm
Protocol: (§1) Test compounds were formulated using a solution containing 10% acetone, 90% water and 300 ppm Activator 90® non-ionic surfactant (Loveland Products, Loveland, Colorado, USA). The formulated compounds were applied in 1 mL of liquid through an atomizer nozzle positioned 1.27 cm (0.5 inches) above the top of each test unit. Test compounds were sprayed at the rates indicated, and each test was replicated three times.
For evaluating control of the sweetpotato whitefly (Bemisia tabaci (Gennadius)) through contact and/or systemic means, the test unit consisted of a small open container with a 12-14-day-old cotton plant inside. Prior to the spray application, both cotyledons were removed from the plant, leaving one true leaf for the assay. Adult whiteflies were allowed to lay eggs on the plant and then were removed from the test unit. Cotton plants infested with at least 15 eggs were submitted to the test for spraying.
[…] After spraying, the test units were allowed to dry for 1 hour. The cylinders were then removed, and the units were taken to a growth chamber and held for 13 days at 28° C. and 50-70% relative humidity. Each test unit was then visually assessed for insect mortality.

[2] = tested on: corn planthopper (Peregrinus maidis (Ashmead)); conditions: 144 h, corn plant, nymphs, assessed after 6 days; for mortality at 50 ppm: sprayed at 50 ppm; for mortality at 10 ppm: sprayed at 10 ppm
Protocol: as §1
For evaluating control of corn planthopper (Peregrinus maidis (Ashmead)) through contact and/or systemic means, the test unit consisted of a small open container with a 3-4-day-old corn (maize) plant inside. White sand was added to the top of the soil prior to application of the test compound.
Test compounds were formulated and sprayed at 250 and/or 50 ppm and/or 10 ppm. After spraying of the formulated test compound, the test units were allowed to dry for 1 h before they were post-infested with ˜15-20 nymphs (18-to-21-day-old). A black, screened cap was placed on the top of each test unit, and the test units were held for 6 days in a growth chamber at 22-24° C. and 50-70% relative humidity. Each test unit was then visually assessed for insect mortality.

[3] = tested on: cotton melon aphid (Aphis gossypii (Glover)); conditions: 144 h, okra plant, assessed after 6 days; for mortality at 50 ppm: sprayed at 50 ppm; for mortality at 10 ppm: tested at 10 ppm
Protocol: as §1
For evaluating control of cotton melon aphid (Aphis gossypii (Glover)) through contact and/or systemic means, the test unit consisted of a small open container with a 5-day-old okra plant inside. This was pre-infested with 30-40 insects on a piece of leaf according to the cut-leaf method, and the soil of the test unit was covered with a layer of sand.
[…] After spraying, the test units were maintained in a growth chamber for 6 days at 19° C. and 70% relative humidity. Each test unit was then visually assessed for insect mortality.

[4] = tested on: green peach aphid (Myzus persicae (Sulzer)); conditions: 144 h, sprayed at 50 ppm, radish plant, assessed after 6 days
Protocol: as §1
For evaluating control of green peach aphid (Myzus persicae (Sulzer)) through contact and/or systemic means, the test unit consisted of a small open container with a 12-15-day-old radish plant inside. This was pre-infested by placing on a leaf of the test plant 30-40 aphids on a piece of leaf excised from a culture plant (cut-leaf method). The aphids moved onto the test plant as the leaf piece desiccated. After pre-infestation, the soil of the test unit was covered with a layer of sand.
Test compounds were formulated and sprayed at 250 and/or 50 ppm. After spraying of the formulated test compound, each test unit was allowed to dry for 1 hour and then a black, screened cap was placed on top. The test units were held for 6 days in a growth chamber at 19-21° C. and 50-70% relative humidity. Each test unit was then visually assessed for insect mortality.

FC(F)(F)Oc1ccc(Cc2ccncc2-n2nccn2)cc1 [Compound 16]
mortality at 50 ppm [1]: ≥ 70%
mortality at 50 ppm [2]: ≥ 80%
mortality at 50 ppm [3]: ≥ 80%
mortality at 10 ppm [3]: ≥ 80%

[O-][S+](c1ccc(Cc2c(Cl)cncc2-n2nccn2)cc1)C(F)(F)F (stereo not drawn) [Compound 22]
mortality at 50 ppm [1]: ≥ 70%
mortality at 50 ppm [3]: ≥ 80%
mortality at 50 ppm [4]: ≥ 80%

CCC(c1ccc(OC(F)(F)F)cc1)c1c(F)cncc1-n1nccn1 (stereo not drawn) [Compound 60]
mortality at 50 ppm [1]: ≥ 70%
mortality at 10 ppm [1]: ≥ 70%
mortality at 50 ppm [2]: ≥ 80%
mortality at 50 ppm [3]: ≥ 80%

CCC(c1ccc(SC(F)(F)F)cc1)c1c(F)cncc1-n1nccn1 (stereo not drawn) [Compound 57]
mortality at 50 ppm [1]: ≥ 70%
mortality at 10 ppm [1]: ≥ 70%
mortality at 10 ppm [2]: ≥ 80%
mortality at 50 ppm [2]: ≥ 80%
mortality at 50 ppm [3]: ≥ 80%

FC(F)(F)Sc1ccc(Cc2ccncc2-n2nccn2)cc1 [Compound 23]
mortality at 50 ppm [1]: ≥ 70%
mortality at 10 ppm [2]: ≥ 80%
mortality at 50 ppm [2]: ≥ 80%
mortality at 50 ppm [3]: ≥ 80%
mortality at 50 ppm [4]: ≥ 80%

Fc1cncc(-n2nccn2)c1Cc1cccc(OC(F)(F)C(F)F)c1 [Compound 65]
mortality at 50 ppm [2]: ≥ 80%
mortality at 50 ppm [3]: ≥ 80%

FC(F)Oc1ccc(Cc2c(Cl)cncc2-n2nccn2)cc1 [Compound 46]
mortality at 50 ppm [1]: ≥ 70%
mortality at 10 ppm [1]: ≥ 70%
mortality at 10 ppm [2]: ≥ 80%
mortality at 50 ppm [2]: ≥ 80%
mortality at 50 ppm [3]: ≥ 80%

FC(F)(F)Oc1ccc(Cc2c(Cl)cncc2-n2nccn2)cc1Cl [Compound 71]
mortality at 50 ppm [1]: ≥ 70%
mortality at 10 ppm [1]: ≥ 70%
mortality at 10 ppm [2]: ≥ 80%
mortality at 50 ppm [2]: ≥ 80%
mortality at 50 ppm [3]: ≥ 80%
mortality at 50 ppm [4]: ≥ 80%

FC(F)(F)Sc1ccc(Cc2c(Cl)cncc2-c2nccs2)cc1 [Compound 35]
mortality at 50 ppm [1]: ≥ 70%
mortality at 50 ppm [2]: ≥ 80%
mortality at 50 ppm [3]: ≥ 80%

Fc1cncc(-c2ncco2)c1Cc1ccc(OC(F)(F)F)cc1 [Compound 41]
mortality at 10 ppm [2]: ≥ 80%
mortality at 50 ppm [2]: ≥ 80%
mortality at 50 ppm [3]: ≥ 80%
mortality at 10 ppm [3]: ≥ 80%

FC(F)(F)Sc1ccc(Cc2c(Cl)cncc2-c2ncco2)cc1 [Compound 37]
mortality at 50 ppm [2]: ≥ 80%

Fc1cc(Cc2c(F)cncc2-n2nccn2)ccc1C(F)(F)F [Compound 73]
mortality at 10 ppm [2]: ≥ 80%
mortality at 50 ppm [2]: ≥ 80%
mortality at 50 ppm [3]: ≥ 80%
mortality at 10 ppm [3]: ≥ 80%

FC(F)Oc1ccc(Cc2c(Cl)cncc2-n2cccn2)cc1 [Compound 45]
mortality at 50 ppm [1]: ≥ 70%
mortality at 10 ppm [2]: ≥ 80%
mortality at 50 ppm [2]: ≥ 80%
mortality at 50 ppm [3]: ≥ 80%

Fc1cncc(-c2nccs2)c1Cc1ccc(OC(F)(F)F)cc1 [Compound 40]
mortality at 50 ppm [1]: ≥ 70%
mortality at 10 ppm [1]: ≥ 70%
mortality at 10 ppm [2]: ≥ 80%
mortality at 50 ppm [2]: ≥ 80%
mortality at 50 ppm [3]: ≥ 80%
mortality at 10 ppm [3]: ≥ 80%

FC(F)(F)Oc1ccc(Cc2c(Cl)cncc2-n2nccn2)cc1Br [Compound 68]
mortality at 50 ppm [1]: ≥ 70%
mortality at 10 ppm [1]: ≥ 70%
mortality at 10 ppm [2]: ≥ 80%
mortality at 50 ppm [2]: ≥ 80%
mortality at 50 ppm [4]: ≥ 80%

FC(F)(F)Oc1ccc(Cc2c(I)cncc2-n2nccn2)cc1 [Compound 17]
mortality at 50 ppm [1]: ≥ 70%
mortality at 50 ppm [3]: ≥ 80%

CC(c1ccc(OC(F)(F)F)cc1)c1c(F)cncc1-n1nccn1 (stereo not drawn) [Compound 9, 3-fluoro-5-(triazol-2-yl)-4-[1-[4-(trifluoromethoxy)phenyl]ethyl]pyridine]
mortality at 50 ppm [1]: ≥ 70%
mortality at 10 ppm [2]: ≥ 80%
mortality at 50 ppm [2]: ≥ 80%
mortality at 50 ppm [3]: ≥ 80%
mortality at 10 ppm [3]: ≥ 80%
mortality at 50 ppm [4]: ≥ 80%

CC(c1ccc(SC(F)(F)F)cc1)c1c(F)cncc1-c1nccs1 (stereo not drawn) [Compound 54]
mortality at 50 ppm [1]: ≥ 70%
mortality at 10 ppm [2]: ≥ 80%
mortality at 50 ppm [2]: ≥ 80%
mortality at 50 ppm [3]: ≥ 80%

FC(F)(F)Sc1ccc(Cc2c(Cl)cncc2-n2ccnn2)cc1 [Compound 6]
mortality at 50 ppm [1]: ≥ 70%
mortality at 50 ppm [2]: ≥ 80%

CC(c1ccc(OC(F)(F)F)cc1)c1c(F)cncc1-c1nccs1 (stereo not drawn) [Compound 63]
mortality at 50 ppm [1]: ≥ 70%
mortality at 10 ppm [2]: ≥ 80%
mortality at 50 ppm [2]: ≥ 80%
mortality at 50 ppm [3]: ≥ 80%
mortality at 10 ppm [3]: ≥ 80%
mortality at 50 ppm [4]: ≥ 80%

[O-][S+](c1ccc(Cc2c(F)cncc2-n2nccn2)cc1)C(F)(F)F (stereo not drawn) [Compound 18]
mortality at 50 ppm [1]: ≥ 70%
mortality at 50 ppm [2]: ≥ 80%
mortality at 50 ppm [3]: ≥ 80%
mortality at 50 ppm [4]: ≥ 80%

CC(c1ccc(SC(F)(F)F)cc1)c1c(Cl)cncc1-n1cncn1 (stereo not drawn) [Compound 51]
mortality at 50 ppm [1]: ≥ 70%
mortality at 50 ppm [2]: ≥ 80%
mortality at 50 ppm [3]: ≥ 80%
mortality at 50 ppm [4]: ≥ 80%

CC(c1ccc(SC(F)(F)F)cc1)c1c(F)cncc1-n1cncn1 (stereo not drawn) [Compound 52]
mortality at 50 ppm [1]: ≥ 70%
mortality at 50 ppm [2]: ≥ 80%
mortality at 50 ppm [3]: ≥ 80%
mortality at 50 ppm [4]: ≥ 80%

Fc1cc(Cc2c(F)cncc2-n2nccn2)ccc1OC(F)(F)F [Compound 66]
mortality at 50 ppm [1]: ≥ 70%
mortality at 10 ppm [2]: ≥ 80%
mortality at 50 ppm [2]: ≥ 80%
mortality at 50 ppm [3]: ≥ 80%
mortality at 10 ppm [3]: ≥ 80%

FC(F)(F)Oc1ccc(Cc2c(Br)cncc2-n2nccn2)cc1 [Compound 15]
mortality at 50 ppm [1]: ≥ 70%
mortality at 50 ppm [3]: ≥ 80%
mortality at 50 ppm [4]: ≥ 80%

CC(c1ccc(SC(F)(F)F)cc1)c1c(F)cncc1-n1cccn1 (stereo not drawn) [Compound 50]
mortality at 50 ppm [2]: ≥ 80%
mortality at 50 ppm [3]: ≥ 80%

Fc1cncc(-n2nccn2)c1Cc1ccc(OC(F)(F)F)c(Br)c1 [Compound 69]
mortality at 50 ppm [1]: ≥ 70%
mortality at 10 ppm [2]: ≥ 80%
mortality at 50 ppm [2]: ≥ 80%
mortality at 50 ppm [3]: ≥ 80%
mortality at 50 ppm [4]: ≥ 80%

CC(c1ccc(SC(F)(F)F)cc1)c1c(Cl)cncc1-n1nccn1 (stereo not drawn) [Compound 14]
mortality at 50 ppm [1]: ≥ 70%
mortality at 50 ppm [3]: ≥ 80%
mortality at 50 ppm [4]: ≥ 80%

CC(c1ccc(SC(F)(F)F)cc1)c1c(F)cncc1-n1ccnn1 (stereo not drawn) [Compound 11]
mortality at 50 ppm [2]: ≥ 80%
mortality at 50 ppm [3]: ≥ 80%

Fc1cncc(-c2ncco2)c1Cc1ccc(SC(F)(F)F)cc1 [Compound 30]
mortality at 10 ppm [2]: ≥ 80%
mortality at 50 ppm [2]: ≥ 80%
mortality at 50 ppm [3]: ≥ 80%
mortality at 10 ppm [3]: ≥ 80%

Fc1cc(Cc2c(Cl)cncc2-n2nccn2)ccc1C(F)(F)F [Compound 72]
mortality at 50 ppm [1]: ≥ 70%
mortality at 10 ppm [2]: ≥ 80%
mortality at 50 ppm [2]: ≥ 80%
mortality at 50 ppm [3]: ≥ 80%
mortality at 50 ppm [4]: ≥ 80%

FC(F)(F)Oc1ccc(Cc2c(Cl)cncc2-n2nccn2)cc1 [Compound 12]
mortality at 10 ppm [2]: ≥ 80%
mortality at 50 ppm [2]: ≥ 80%
mortality at 50 ppm [3]: ≥ 80%
mortality at 50 ppm [4]: ≥ 80%
